These compounds were tested against leukotriene receptor (assay: leukotriene receptor binding assay (RBL-1)). Conditions: Bruns et al.
Excerpt: The usefulness of the compounds of Formula I is particularly directed to the treatment of humans. By virtue of the activity of the compounds having the Formula I of the present invention as antagonists of Slow Reacting Substance of Anaphylaxis (leukotrienes C, D, and E) are useful in the treatment of allergic rhinitis, asthma, bronchitis, and urticaria. They are also particularly useful for the treatment of cardiovascular diseases mediated by leukotrienes, C, D, and E. See B. Samuelsson, "Leukotrienes: Mediators of Immediate Hypersensitivity Reactions and Inflammation,"Science, Vol. 220, p. 568 (1983); P. J. Piper, "Leukotrienes," Trends in Pharmaceutic Sciences, pp. 75-77 (1983; and J. L. Romson, et al, "Reduction of the Extent of Ischemic Myocardial Injury by Neutrophil Depletion in the Dog," Circulation, Vol. 67, p. 1016 (1983). The activity of the compounds I of the present invention is determined in a leukotriene receptor binding assay (RBL-1) described by R. F. Bruns, W. J. Thomsen, and T. A. Pugsley in Life Sciences, 33, p. 645 (1983).
When tested by the procedures in a leukotriene receptor binding assay (RBL-1) as described by Bruns et al cited above, the compounds of the Formula I as defined in the present invention have the indicated activity as shown in Table 5 as IC50 values expressed in μMs (micromolar).

SMILES | IC50 [µM]
CCCCCCCCCCCCN=C1SC(=CC(=O)O)C(=O)N1CCCCCCCCCCCC [Example 20, [3-Dodecyl-2-(dodecylimino)-4-oxo-5-thiazolidinylidene]acetic acid] | > 100
CCN=C1SC(=CC(=O)O)C(=O)N1CC [Example 2, [3-Ethyl-2-(ethylimino)-4-oxo-5-thiazolidinylidene]acetic acid] | > 100
O=C(O)C=C1SC(=NCCc2ccccc2)N(CCc2ccccc2)C1=O [Example 15, [4-Oxo-3-(2-phenylethyl)-2-[(2-phenylethyl)imino]-5-thiazolidinylidene]acetic acid] | > 100
COc1cccc(N=C2SC(=CC(=O)O)C(=O)N2c2cccc(OC)c2)c1 [Example 24, [3-(3-Methoxyphenyl)-2-[(3-methoxyphenyl)imino]-4-oxo-5-thiazolidinylidene]acetic acid] | > 100
CCCCCCCCCCN=C1SC(=CC(=O)O)C(=O)N1CCCCCCCCCC [Example 19, [3-Decyl-2-(decylimino)-4-oxo-5-thiazolidinylidene]acetic acid] | > 100
O=C(O)C=C1SC(=NC2CCCCC2)N(C2CCCCC2)C1=O [Example 25, [3-Cyclohexyl-2-(cyclohexylimino)-4-oxo-5-thiazolidinylidene]acetic acid] | 62.5
COc1cc(N=C2SC(=CC(=O)O)C(=O)N2c2cc(OC)c(OC)c(OC)c2)cc(OC)c1OC [Example 6, [4-Oxo-3-(3,4,5-trimethoxyphenyl)-2-[(3,4,5-trimethoxyphenyl)imino]-5-thiazolidinylidene]acetic acid] | > 100
COc1ccc(N=C2SC(=CC(=O)O)C(=O)N2c2ccc(OC)cc2)cc1 [Example 7, [4-Oxo-3-(4-methoxyphenyl)-2-[(4-methoxyphenyl)imino]-5-thiazolidinylidene]acetic acid] | > 100
CCCN=C1SC(=CC(=O)O)C(=O)N1CCC [Example 8, [4-Oxo-3-propyl-2-(propylimino)-5-thiazolidinylidene]acetic acid] | > 100
CN1C(=O)C(=CC(=O)O)SC1=Nc1ccc(Cl)c(Cl)c1 [Example 12, [2-[(3,4-dichlorophenyl)imino]-3-methyl-4-oxo-5-thiazolidinylidene]acetic acid] | > 100
CCCCCCCCCCCN=C1SC(=CC(=O)O)C(=O)N1CCCCCCCCCCC [Example 16, [3-Undecyl-2-(undecylimino)-4-oxo-5-thiazolidinylidene]acetic acid] | > 100
CCCCCCN1C(=O)C(=CC(=O)O)SC1=Nc1ccccc1 [Example 13, [3-Hexyl-4-oxo-2-(phenylimino)-5-thiazolidinylidene]acetic acid] | 39.2
COc1ccccc1N=C1SC(=CC(=O)O)C(=O)N1c1ccccc1OC [Example 10, [3-(2-Methoxyphenyl)-2-[(2-methoxyphenyl)imino]-4-oxo-5-thiazolidinylidene]acetic acid] | > 100
CCCCN=C1SC(=CC(=O)O)C(=O)N1CCCC [Example 9, [3-Butyl-2-(butylimino)-4-oxo-5-thiazolidinylidene]acetic acid] | > 100

Now those with a lower IC50, led by results:

IC50 [µM] | SMILES
24.5 | CCCCCCN=C1SC(=CC(=O)O)C(=O)N1CCCCCC [Example 4, [3-Hexyl-2-(hexylimino)-4-oxo-5-thiazolidinylidene]acetic acid]
19 | CCCCCCCCN=C1SC(=CC(=O)O)C(=O)N1CCCCCCCC [Example 1, [3-Octyl-2-(octylimino)-4-oxo-5-thiazolidinylidene]acetic acid]
18.9 | O=C(O)C=C1SC(=Nc2ccc(Br)c(Br)c2)N(c2ccc(Br)c(Br)c2)C1=O [Example 22, [4-Oxo-3-(3,4-dibromophenyl)-2-[(3,4-dibromophenyl)imino]-5-thiazolidinylidene]acetic acid]
15.6 | O=C(O)C=C1SC(=Nc2ccc(Cl)c(Cl)c2)N(c2ccc(Cl)c(Cl)c2)C1=O [Example 21, [4-oxo-3-(3,4-dichlorophenyl)-2-[(3,4-dichlorophenyl)imino]-5-thiazolidinylidene]acetic acid]
15.4 | CCCCCN=C1SC(=CC(=O)O)C(=O)N1CCCCC [Example 3, [3-Pentyl-2-(pentylimino)-4-oxo-5-thiazolidinylidene]acetic acid]
13.1 | O=C(O)C=C1SC(=Nc2cc(Cl)c(Cl)c(Cl)c2)N(c2cc(Cl)c(Cl)c(Cl)c2)C1=O [Example 23]
12.7 | CCCCCCCN=C1SC(=CC(=O)O)C(=O)N1CCCCCCC [Example 18, [3-Heptyl-2-(heptylimino)-4-oxo-5-thiazolidinylidene]acetic acid]
12.2 | CCCCCCN1C(=O)C(=CC(=O)O)SC1=Nc1ccc(Cl)c(Cl)c1 [Example 11, [2-[(3,4-dichlorophenyl)imino]-3-hexyl-4-oxo-5-thiazolidinylidene]acetic acid]
10.3 | CCCCCCN1C(=O)C(=CC(=O)O)SC1=Nc1cccc2ccccc12 [Example 17, [3-Hexyl-2-[(1-naphthalenyl)imino]-4-oxo-5-thiazolidinylidene]acetic acid]

— patent US4775677A, “[3-substituted-2-(substituted imino)-4-oxo-5-thiazolidinylidene]acetic acids having activity as leukotriene antagonists” (Warner-Lambert Company, priority 1987, dated 1988)
